Values quoted from earlier work in patent US12691079B2, “Biodissolvable film for localized and efficient treatment of vulvodynia” (The University of North Carolina at Chapel Hill, priority 2019, dated 2026).

Tested on: vulvar vestibule
Conditions: topical application to the vulvar vestibule

For CCN(CC)CC(=O)Nc1c(C)cccc1C [lidocaine], which duration of relief is on record?
Its duration of relief is 30 to 60 min.
